PubChem BioAssay AID1259407 (Chemical Carcinogenesis Research Information System (CCRIS), 2018)
Calls of active or inactive are those of the source. How the calls were made is not given here.

Tested on: CCRIS mutagenicity, Ames/micronucleus/aberration tests
Assay: CCRIS mutagenicity studies
[1] = Test System: AMES SALMONELLA TYPHIMURIUM, Strain/Indicator: TA100, Metabolic Activation: NONE, Method: STANDARD PLATE
[2] = Test System: AMES SALMONELLA TYPHIMURIUM, Strain/Indicator: TA100, Metabolic Activation: RAT, LIVER, S-9, AROCLOR 1254, Method: STANDARD PLATE
[3] = Test System: AMES SALMONELLA TYPHIMURIUM, Strain/Indicator: TA1535, Metabolic Activation: NONE, Method: STANDARD PLATE
[4] = Test System: AMES SALMONELLA TYPHIMURIUM, Strain/Indicator: TA1535, Metabolic Activation: RAT, LIVER, S-9, AROCLOR 1254, Method: STANDARD PLATE
[5] = Test System: AMES SALMONELLA TYPHIMURIUM, Strain/Indicator: TA98, Metabolic Activation: NONE, Method: STANDARD PLATE
[6] = Test System: AMES SALMONELLA TYPHIMURIUM, Strain/Indicator: TA98, Metabolic Activation: NONE, Method: PREINCUBATION
[7] = Test System: AMES SALMONELLA TYPHIMURIUM, Strain/Indicator: TA100, Metabolic Activation: NONE, Method: PREINCUBATION
[8] = Test System: AMES SALMONELLA TYPHIMURIUM, Strain/Indicator: TA1535, Metabolic Activation: NONE, Method: PREINCUBATION
[9] = Test System: AMES SALMONELLA TYPHIMURIUM, Strain/Indicator: TA1537, Metabolic Activation: NONE, Method: PREINCUBATION

## C1CCCC2OC2CC1 (stereo unspecified)
[1]
  mutagenic call: inactive; negative
[2]
  mutagenic call: inactive; negative
[3]
  mutagenic call: inactive; negative
[4]
  mutagenic call: inactive; negative
Test System: UDS RAT HEPATOCYTES, Strain/Indicator: THY INCORP, Metabolic Activation: NONE
  mutagenic call: inactive; negative

## Cn1cc2ccc([N+](=O)[O-])cc2n1
[5]
  mutagenic call: active; positive

## COc1cccc(N)c1
End Point: IN VITRO CHROMOSOMAL ABERRATIONS, Test System: CHINESE HAMSTER OVARY CELLS, Metabolic Activation: NONE
  mutagenic call: active; positive
End Point: IN VITRO CHROMOSOMAL ABERRATIONS, Test System: CHINESE HAMSTER OVARY CELLS, Metabolic Activation: RAT, LIVER, S-9, AROCLOR 1254
  mutagenic call: inactive; negative
Test System: AMES SALMONELLA TYPHIMURIUM, Strain/Indicator: TA98, Metabolic Activation: HAMSTER, LIVER, S-9, AROCLOR 1254, Method: PREINCUBATION
  mutagenic call: inactive; negative
[6]
  mutagenic call: inactive; negative
Test System: AMES SALMONELLA TYPHIMURIUM, Strain/Indicator: TA98, Metabolic Activation: RAT, LIVER, S-9, AROCLOR 1254, Method: PREINCUBATION
  mutagenic call: inactive; negative
Test System: AMES SALMONELLA TYPHIMURIUM, Strain/Indicator: TA100, Metabolic Activation: HAMSTER, LIVER, S-9, AROCLOR 1254, Method: PREINCUBATION
  mutagenic call: inactive; negative
[7]
  mutagenic call: inactive; negative
Test System: AMES SALMONELLA TYPHIMURIUM, Strain/Indicator: TA100, Metabolic Activation: RAT, LIVER, S-9, AROCLOR 1254, Method: PREINCUBATION
  mutagenic call: inactive; negative
Test System: AMES SALMONELLA TYPHIMURIUM, Strain/Indicator: TA102, Metabolic Activation: NONE, Method: STANDARD PLATE
  mutagenic call: inactive; negative
Test System: AMES SALMONELLA TYPHIMURIUM, Strain/Indicator: TA1535, Metabolic Activation: HAMSTER, LIVER, S-9, AROCLOR 1254, Method: PREINCUBATION
  mutagenic call: inactive; negative
[8]
  mutagenic call: inactive; negative
Test System: AMES SALMONELLA TYPHIMURIUM, Strain/Indicator: TA1535, Metabolic Activation: RAT, LIVER, S-9, AROCLOR 1254, Method: PREINCUBATION
  mutagenic call: inactive; negative
Test System: AMES SALMONELLA TYPHIMURIUM, Strain/Indicator: TA1537, Metabolic Activation: HAMSTER, LIVER, S-9, AROCLOR 1254, Method: PREINCUBATION
  mutagenic call: inactive; negative
[9]
  mutagenic call: inactive; negative
Test System: AMES SALMONELLA TYPHIMURIUM, Strain/Indicator: TA1537, Metabolic Activation: RAT, LIVER, S-9, AROCLOR 1254, Method: PREINCUBATION
  mutagenic call: inactive; negative
Test System: AMES SALMONELLA TYPHIMURIUM, Strain/Indicator: TA2638, Metabolic Activation: NONE, Method: STANDARD PLATE
  mutagenic call: inactive; negative
Test System: E. COLI, Strain/Indicator: WP2 (PKM101), Metabolic Activation: NONE, Method: STANDARD PLATE
  mutagenic call: inactive; negative
Test System: E. COLI, Strain/Indicator: WP2 UVRA (PKM101), Metabolic Activation: NONE, Method: STANDARD PLATE
  mutagenic call: inactive; negative

## N[C@@H](CCS/C(Cl)=C/Cl)C(=O)O
Test System: AMES SALMONELLA TYPHIMURIUM, Strain/Indicator: TA2638, Metabolic Activation: NONE, Method: PREINCUBATION
  mutagenic call: inactive; negative
Test System: AMES SALMONELLA TYPHIMURIUM, Strain/Indicator: TA2638, Metabolic Activation: RAT, KIDNEY, CYTOSOL, Method: PREINCUBATION
  mutagenic call: active; positive

## C[C@H](CC1=C(C=O)CO[C@@H]1O)C1=CCC(C)(C)C1
[5]
  mutagenic call: inactive; negative
[1]
  mutagenic call: inactive; negative
Test System: AMES SALMONELLA TYPHIMURIUM, Strain/Indicator: TA2637, Metabolic Activation: NONE, Method: STANDARD PLATE
  mutagenic call: inactive; negative

## O=[N+]([O-])c1cc([N+](=O)[O-])c2ccccc2c1
Test System: AMES SALMONELLA TYPHIMURIUM, Strain/Indicator: TA98, Metabolic Activation: HAMSTER, LIVER, S-9, AROCLOR 1254 (30%), Method: PREINCUBATION
  mutagenic call: active; positive
[6]
  mutagenic call: active; positive
Test System: AMES SALMONELLA TYPHIMURIUM, Strain/Indicator: TA98, Metabolic Activation: RAT, LIVER, S-9, AROCLOR 1254 (30%), Method: PREINCUBATION
  mutagenic call: active; positive
Test System: AMES SALMONELLA TYPHIMURIUM, Strain/Indicator: TA100, Metabolic Activation: HAMSTER, LIVER, S-9, AROCLOR 1254 (30%), Method: PREINCUBATION
  mutagenic call: active; positive
[7]
  mutagenic call: active; positive
Test System: AMES SALMONELLA TYPHIMURIUM, Strain/Indicator: TA100, Metabolic Activation: RAT, LIVER, S-9, AROCLOR 1254 (30%), Method: PREINCUBATION
  mutagenic call: active; positive

## Cl[C@@H]1O[C@@H]1CBr
[7]
  mutagenic call: active; positive

## O=C1NC(=O)C(Cl)(Cl)C1=C(Cl)Cl
[1]
  mutagenic call: active; positive

## O=C(O)C(Cl)=C(C(Cl)Cl)C(Cl)Cl
[6]
  mutagenic call: active; positive
[7]
  mutagenic call: active; positive
[1]
  mutagenic call: active; positive
Test System: AMES SALMONELLA TYPHIMURIUM, Strain/Indicator: TA104, Metabolic Activation: NONE, Method: PREINCUBATION
  mutagenic call: active; positive

## Nc1c(O)cccc1[N+](=O)[O-]
[5]
  mutagenic call: inactive; negative
Test System: AMES SALMONELLA TYPHIMURIUM, Strain/Indicator: TA98, Metabolic Activation: RAT, LIVER, S-9, AROCLOR 1254, Method: STANDARD PLATE
  mutagenic call: inactive; negative
[1]
  mutagenic call: inactive; negative
[2]
  mutagenic call: inactive; negative
[3]
  mutagenic call: inactive; negative
[4]
  mutagenic call: inactive; negative
Test System: AMES SALMONELLA TYPHIMURIUM, Strain/Indicator: TA1537, Metabolic Activation: NONE, Method: STANDARD PLATE
  mutagenic call: inactive; negative
Test System: AMES SALMONELLA TYPHIMURIUM, Strain/Indicator: TA1537, Metabolic Activation: RAT, LIVER, S-9, AROCLOR 1254, Method: STANDARD PLATE
  mutagenic call: inactive; negative
Test System: AMES SALMONELLA TYPHIMURIUM, Strain/Indicator: TA1538, Metabolic Activation: NONE, Method: STANDARD PLATE
  mutagenic call: inactive; negative
Test System: AMES SALMONELLA TYPHIMURIUM, Strain/Indicator: TA1538, Metabolic Activation: RAT, LIVER, S-9, AROCLOR 1254, Method: STANDARD PLATE
  mutagenic call: inactive; negative

## BrCc1ccccc1CBr
[5]
  mutagenic call: inactive; negative
[1]
  mutagenic call: inactive; negative

## C=CCN(CC=C)C1c2ccccc2-c2ccccc2C1N1C2c3ccccc3-c3ccccc3C21 (stereo unspecified)
[1]
  mutagenic call: inactive; negative

## CCCCN(CCO)CCCC
Test System: AMES SALMONELLA TYPHIMURIUM, Strain/Indicator: TA98, Metabolic Activation: HAMSTER, LIVER, S-9, AROCLOR 1254 (10%), Method: PREINCUBATION
  mutagenic call: inactive; negative
[6]
  mutagenic call: inactive; negative
Test System: AMES SALMONELLA TYPHIMURIUM, Strain/Indicator: TA98, Metabolic Activation: RAT, LIVER, S-9, AROCLOR 1254 (10%), Method: PREINCUBATION
  mutagenic call: inactive; negative
Test System: AMES SALMONELLA TYPHIMURIUM, Strain/Indicator: TA100, Metabolic Activation: HAMSTER, LIVER, S-9, AROCLOR 1254 (10%), Method: PREINCUBATION
  mutagenic call: inactive; negative
[7]
  mutagenic call: inactive; negative
Test System: AMES SALMONELLA TYPHIMURIUM, Strain/Indicator: TA100, Metabolic Activation: RAT, LIVER, S-9, AROCLOR 1254 (10%), Method: PREINCUBATION
  mutagenic call: inactive; negative
Test System: AMES SALMONELLA TYPHIMURIUM, Strain/Indicator: TA1535, Metabolic Activation: HAMSTER, LIVER, S-9, AROCLOR 1254 (10%), Method: PREINCUBATION
  mutagenic call: inactive; negative
[8]
  mutagenic call: inactive; negative
Test System: AMES SALMONELLA TYPHIMURIUM, Strain/Indicator: TA1535, Metabolic Activation: RAT, LIVER, S-9, AROCLOR 1254 (10%), Method: PREINCUBATION
  mutagenic call: inactive; negative
Test System: AMES SALMONELLA TYPHIMURIUM, Strain/Indicator: TA1537, Metabolic Activation: HAMSTER, LIVER, S-9, AROCLOR 1254 (10%), Method: PREINCUBATION
  mutagenic call: inactive; negative
[9]
  mutagenic call: inactive; negative
Test System: AMES SALMONELLA TYPHIMURIUM, Strain/Indicator: TA1537, Metabolic Activation: RAT, LIVER, S-9, AROCLOR 1254 (10%), Method: PREINCUBATION
  mutagenic call: inactive; negative
